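Following 48 hours of exposure in 96-well plates, responses at five concentrations were used to interpolate endpoints linearly. The concentration for 50% growth inhibition is given as GI50.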 Active and inactive are the calls of the source. Rule as the data show it: active = GI50 up to about 1.1 µM and inactive = higher.
Assays:
Experiment in all cases: DTP human tumour cell line panel, 48 h
DU-145 = system: DU-145
SW-620 = system: SW-620
NCI-H522 = system: NCI-H522
NCI-H23 = system: NCI-H23
SK-MEL-28 = system: SK-MEL-28
OVCAR-3 = system: OVCAR-3
A549 = system: A549
SNB-75 = system: SNB-75
NCI/ADR-RES = system: NCI/ADR-RES
HT-29 = system: HT-29
IGROV-1 = system: IGROV-1
SN12C = system: SN12C
CCRF-CEM = system: CCRF-CEM
NCI-H460 = system: NCI-H460
HOP-92 = system: HOP-92
SNB-19 = system: SNB-19
UACC-257 = system: UACC-257
PC-3 = system: PC-3
SK-OV-3 = system: SK-OV-3
HCC 2998 = system: HCC 2998

| Structure (SMILES) | GI50 (DU-145) | GI50 (SW-620) | GI50 (NCI-H522) | GI50 (NCI-H23) | GI50 (SK-MEL-28) | GI50 (OVCAR-3) | GI50 (A549) | GI50 (SNB-75) | GI50 (NCI/ADR-RES) | GI50 (HT-29) | GI50 (IGROV-1) | GI50 (SN12C) | GI50 (CCRF-CEM) | GI50 (NCI-H460) | GI50 (HOP-92) | GI50 (SNB-19) | GI50 (UACC-257) | GI50 (PC-3) | GI50 (SK-OV-3) | GI50 (HCC 2998) |
| --- | --- | --- | --- | --- | --- | --- | --- | --- | --- | --- | --- | --- | --- | --- | --- | --- | --- | --- | --- | --- |
| CC/C=C/C(/C=C/C[C@]1(CC)C[C@H](CC)[C@H](CC(=O)O)OO1)CC (some centres undefined) | 1.85 µM (inactive) | 2.12 µM (inactive) | 1.75 µM (inactive) | 2.24 µM (inactive) | 2.23 µM (inactive) | 2 µM (inactive) | 1.68 µM (inactive) | 6.41 µM (inactive) | 2.1 µM (inactive) | 1.84 µM (inactive) | 0.353 µM (active) | 5.65 µM (inactive) | 0.492 µM (active) | 1.96 µM (inactive) | 1.99 µM (inactive) | 5.69 µM (inactive) | 14.5 µM (inactive) | 1.67 µM (inactive) | 4.23 µM (inactive) |  |
| COc1ccc(/C=C2\N=C(SC)NC2=O)cc1 | 53.8 µM (inactive) | > 100 µM (inactive) | 69 µM (inactive) | 67 µM (inactive) | > 100 µM (inactive) | > 100 µM (inactive) | > 100 µM (inactive) | 27.2 µM (inactive) | > 100 µM (inactive) | > 100 µM (inactive) | 56.5 µM (inactive) | > 100 µM (inactive) | 81.8 µM (inactive) |  |  | 38.5 µM (inactive) |  | 67.1 µM (inactive) | > 100 µM (inactive) | > 100 µM (inactive) |
| O=c1c(-c2ccccc2Cl)coc2cc(F)ccc12 | 27 µM (inactive) | 30.6 µM (inactive) | 10.6 µM (inactive) | 37.3 µM (inactive) | 63.5 µM (inactive) | 30.7 µM (inactive) | 23.7 µM (inactive) | 17.5 µM (inactive) | 19.5 µM (inactive) | 22.5 µM (inactive) | 6.07 µM (inactive) | 53.2 µM (inactive) | 24.3 µM (inactive) | 37.6 µM (inactive) | 18.6 µM (inactive) | 22.9 µM (inactive) | 23.9 µM (inactive) | > 100 µM (inactive) | 45.2 µM (inactive) |  |
| CCC(C)(C)C1CCC2c3c([nH]c4ccccc34)C3C(=O)N(c4ccc(OC)cc4)C(=O)C3C2C1 (centres undefined) | 5.4 µM (inactive) | 17.4 µM (inactive) | 7.16 µM (inactive) | 10.5 µM (inactive) | 25.9 µM (inactive) | 2.19 µM (inactive) | 13.4 µM (inactive) | 16.2 µM (inactive) | 15.6 µM (inactive) | 11.2 µM (inactive) | 15.7 µM (inactive) | 2.42 µM (inactive) |  | 7.4 µM (inactive) |  | 25.6 µM (inactive) | 34 µM (inactive) | 9.79 µM (inactive) | 31.9 µM (inactive) | 5.77 µM (inactive) |
| COc1ccc(-c2csc(Cc3nc4c(Br)cc(Br)cc4c(=O)n3-c3ccc(OC)cc3)n2)cc1 | > 100 µM (inactive) | 67 µM (inactive) |  | 96.2 µM (inactive) | 24.3 µM (inactive) | > 100 µM (inactive) | 63.2 µM (inactive) | > 100 µM (inactive) | 50.9 µM (inactive) | 48.9 µM (inactive) | 73.3 µM (inactive) |  | < 0.01 µM (active) | 54 µM (inactive) | > 100 µM (inactive) | 18.9 µM (inactive) | > 100 µM (inactive) | 28.9 µM (inactive) | 51.8 µM (inactive) | > 100 µM (inactive) |
| Cc1ccc(N2CCN(CCC(=O)O)CC2)cc1 | > 100 µM (inactive) | > 100 µM (inactive) | > 100 µM (inactive) | > 100 µM (inactive) | > 100 µM (inactive) | > 100 µM (inactive) | > 100 µM (inactive) | > 100 µM (inactive) | > 100 µM (inactive) | > 100 µM (inactive) | > 100 µM (inactive) | > 100 µM (inactive) | 52.7 µM (inactive) | > 100 µM (inactive) | > 100 µM (inactive) | > 100 µM (inactive) | > 100 µM (inactive) | > 100 µM (inactive) | > 100 µM (inactive) |  |
| O=C1Cc2c([nH]c3ccccc23)C2(CC3CCCCN13)OCCO2 (centres undefined) | > 100 µM (inactive) | > 100 µM (inactive) |  | > 100 µM (inactive) | > 100 µM (inactive) | > 100 µM (inactive) | > 100 µM (inactive) | 62.8 µM (inactive) | > 100 µM (inactive) | > 100 µM (inactive) | 45.2 µM (inactive) | > 100 µM (inactive) | 90.4 µM (inactive) | > 100 µM (inactive) | 34.2 µM (inactive) | > 100 µM (inactive) | > 100 µM (inactive) | > 100 µM (inactive) | > 100 µM (inactive) | 90.6 µM (inactive) |

— ChEMBL document CHEMBL1201862, “PubChem BioAssay data set” (2004)
